# Measured values published in patent US8193239B2, “Substituted 1-cyanoethylheterocyclylcarboxamide compounds” (AstraZeneca AB, priority 2009, dated 2012).
# Counter-ions that a name gives are not always drawn.
# Molecular target: Recombinant Human (rh) DPP1 (Homo sapiens, UniProt P53634)
# Experiment: Fluorescence Assay for Recombinant Human (rh) DPP1
# Format: biochemical
# Conditions: rhDPP1, substrate H-Gly-Arg-AMC, pH5.0, 22° C., pre-incubated 30-60 min; read-out: DPP1 activity, pIC50 (converted)
# Experimental: Fluorescence Assay for Recombinant Human (rh) DPP1
# The activity of DPP1 was determined by measuring the enzymatic release of aminomethyl coumarin (AMC) from the peptide substrate (H-Gly-Arg-AMC), which leads to an increase in fluorescence intensity at λex=350 nm and λem=450 nm. The assay was carried out in black 384 well plates in a final volume of 50 μl at 22° C. The assay conditions contained the following: 25 mM piperazine buffer pH5.0; 50 mM NaCl, 5 mM DTT; 0.01% (v/v) Triton X-100; 100 μM H-Gly-Arg-AMC and rhDPP1 ([…]). […] A standard DPP1 inhibitor (vinyl sulfone, see below, or Example 24 from WO2009/074829) was used as a positive control in the assay. Routinely, inhibitors were pre-incubated with rhDPP1 for 30-60 min prior to the addition of the peptide substrate to start the reaction for a further 60 min at 22° C. After that the plates were immediately read in a fluorescence plate reader using the above emission and excitation wavelengths [modified from Kam, C M, Gotz, M G, Koot, G, McGuire, M J, Thiele, D L, Hudig, D & Powers, J C (2004). Arch Biochem Biophys, 427, 123-134 & McGuire, M J, Lipsky, P E & Thiele, D L (1992). Arch Biochem Biophys, 295, 280-288].
# Chain of Recombinant Human (rh) DPP1 (P53634 231-394 limits assumed): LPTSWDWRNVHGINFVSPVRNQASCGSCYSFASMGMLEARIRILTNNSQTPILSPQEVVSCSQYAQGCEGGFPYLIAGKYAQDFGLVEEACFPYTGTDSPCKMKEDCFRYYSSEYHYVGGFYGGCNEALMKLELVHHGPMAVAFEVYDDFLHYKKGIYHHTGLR
# Chain of Recombinant Human (rh) DPP1 (P53634 25-134 limits assumed): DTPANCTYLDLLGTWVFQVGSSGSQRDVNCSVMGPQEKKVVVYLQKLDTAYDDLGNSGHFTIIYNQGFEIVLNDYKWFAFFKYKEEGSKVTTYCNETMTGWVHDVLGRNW
# Chain of Recombinant Human (rh) DPP1 (P53634 395-463 limits assumed): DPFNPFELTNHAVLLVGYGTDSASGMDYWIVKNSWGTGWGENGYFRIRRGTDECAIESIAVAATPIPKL
row,SMILES,IC50
1,"N#C[C@H](Cc1ccc(-c2ccc(C(F)(F)F)cc2)cc1)NC(=O)C1(N)CCOCC1 [Example 1, (S)-4-Amino-N-(1-cyano-2-(4′-(trifluoromethyl)biphenyl-4-yl)ethyl)tetrahydro-2H-pyran-4-carboxamide]",0.631 nM
2,"CCS(=O)(=O)c1ccc(-c2ccc(C[C@@H](C#N)NC(=O)C3(N)CCOCC3)cc2)cc1 [Example 2, (S)-4-Amino-N-(1-cyano-2-(4′-(ethylsulfonyl)biphenyl-4-yl)ethyl)tetrahydro-2H-pyran-4-carboxamide]",0.794 nM
3,"N#C[C@H](Cc1ccc(-c2ccc(F)cc2)cc1)NC(=O)C1(N)CCOCC1 [Example 4, (S)-4-Amino-N-(1-cyano-2-(4′-fluorobiphenyl-4-yl)ethyl)tetrahydro-2H-pyran-4-carboxamide]",0.398 nM
4,"CC(C)S(=O)(=O)c1ccc(-c2ccc(C[C@@H](C#N)NC(=O)C3(N)CCOCC3)cc2)cc1 [Example 5, (S)-4-Amino-N-(1-cyano-2-(4′-(isopropylsulfonyl)biphenyl-4-yl)ethyl)tetrahydro-2H-pyran-4-carboxamide]",1 nM
5,"CS(=O)(=O)Oc1ccc(-c2ccc(C[C@@H](C#N)NC(=O)C3(N)CCOCC3)cc2)cc1 [Example 6, (S)-4′-(2-(4-Aminotetrahydro-2H-pyran-4-carboxamido)-2-cyanoethyl)biphenyl-4-yl methanesulfonate trifluoroacetic acid salt, methanesulfonate trifluoroacetic acid …]",0.398 nM
6,"N#C[C@H](Cc1ccc(-c2ccc(S(=O)(=O)N3CCC3)cc2)cc1)NC(=O)C1(N)CCOCC1 [Example 7, (S)-4-Amino-N-(2-(4′-(azetidin-1-ylsulfonyl)biphenyl-4-yl)-1-cyanoethyl)tetrahydro-2H-pyran-4-carboxamide trifluoroacetic acid salt]",0.631 nM
7,"N#Cc1cccc(-c2ccc(C[C@@H](C#N)NC(=O)C3(N)CCOCC3)cc2)c1 [Example 8, (S)-4-Amino-N-(1-cyano-2-(3′-cyanobiphenyl-4-yl)ethyl)tetrahydro-2H-pyran-4-carboxamide]",0.794 nM
8,"COCCn1c(=O)sc2ccc(-c3ccc(C[C@@H](C#N)NC(=O)C4(N)CCOCC4)cc3)cc21 [Example 9, (S)-4-Amino-N-(1-cyano-2-(4-(3-(2-methoxyethyl)-2-oxo-2,3-dihydrobenzo[d]thiazol-5-yl)phenyl)ethyl)tetrahydro-2H-pyran-4-carboxamide trifluoroacetic acid salt]",< 0.316 nM
9,"CN1C(=O)COc2ccc(-c3ccc(C[C@@H](C#N)NC(=O)C4(N)CCOCC4)cc3)cc21 [Example 10, (S)-4-Amino-N-(1-cyano-2-(4-(4-methyl-3-oxo-3,4-dihydro-2H-benzo[b][1,4]oxazin-6-yl)phenyl)ethyl)tetrahydro-2H-pyran-4-carboxamide trifluoroacetic acid salt]",< 0.316 nM
10,"COCCCn1c(=O)oc2ccc(-c3ccc(C[C@@H](C#N)NC(=O)C4(N)CCOCC4)cc3)cc21 [Example 11, (S)-4-Amino-N-(1-cyano-2-(4-(3-(3-methoxypropyl)-2-oxo-2,3-dihydrobenzo[d]oxazol-5-yl)phenyl)ethyl)tetrahydro-2H-pyran-4-carboxamide trifluoroacetic acid salt]",< 0.316 nM
11,"CS(=O)(=O)Oc1cccc(-c2ccc(C[C@@H](C#N)NC(=O)C3(N)CCOCC3)cc2)c1 [Example 12, (S)-4′-(2-(4-Aminotetrahydro-2H-pyran-4-carboxamido)-2-cyanoethyl)biphenyl-3-yl methanesulfonate]",0.501 nM
12,"N#C[C@H](Cc1ccc(-c2ccc(F)c(F)c2)cc1)NC(=O)C1(N)CCOCC1 [Example 13, (S)-4-Amino-N-(1-cyano-2-(3′,4′-difluorobiphenyl-4-yl)ethyl)tetrahydro-2H-pyran-4-carboxamide trifluoroacetic acid salt]",0.316 nM
13,"N#C[C@H](Cc1ccc(-c2ccc3c(c2)CNC3=O)cc1)NC(=O)C1(N)CCOCC1 [Example 15, (S)-4-Amino-N-(1-cyano-2-(4-(1-oxoisoindolin-5-yl)phenyl)ethyl)tetrahydro-2H-pyran-4-carboxamide]",0.126 nM
14,"CN1Cc2cc(-c3ccc(C[C@@H](C#N)NC(=O)C4(N)CCOCC4)cc3)ccc2S1(=O)=O [Example 16, (S)-4-Amino-N-{cyano-2-[4-(2-methyl-1,1-dioxido-2,3-dihydro-1,2-benzisothiazol-5-yl)phenyl]ethyl}tetrahydro-2H-pyran-4-carboxamide trifluoroacetic acid salt]",1 nM
15,"Cn1c(=O)oc2ccc(-c3ccc(C[C@@H](C#N)NC(=O)C4(N)CCOCC4)cc3)cc21 [Example 17, (S)-4-amino-N-(1-cyano-2-(4-(3-methyl-2-oxo-2,3-dihydrobenzo[d]oxazol-5-yl)phenyl)ethyl)tetrahydro-2H-pyran-4-carboxamide]",0.316 nM
16,"Cc1ccc(-c2ccc(C[C@@H](C#N)NC(=O)C3(N)CCOCC3)cc2)cc1C#N [Example 18, (S)-4-Amino-N-(1-cyano-2-(3′-cyano-4′-methylbiphenyl-4-yl)ethyl)tetrahydro-2H-pyran-4-carboxamide trifluoroacetic acid salt]",0.794 nM
17,"Cc1cc(-c2ccc(C[C@@H](C#N)NC(=O)C3(N)CCOCC3)cc2)ccc1C#N [Example 19, (S)-4-Amino-N-(1-cyano-2-(4′-cyano-3′-methylbiphenyl-4-yl)ethyl)tetrahydro-2H-pyran-4-carboxamide trifluoroacetic acid salt]",< 0.316 nM
18,"COc1ccc(-c2ccc(C[C@@H](C#N)NC(=O)C3(N)CCOCC3)cc2)cc1 [Example 20, (S)-4-Amino-N-(1-cyano-2-(4′-methoxybiphenyl-4-yl)ethyl)tetrahydro-2H-pyran-4-carboxamide]",0.794 nM
19,"CN1C(=O)Cc2ccc(-c3ccc(C[C@@H](C#N)NC(=O)C4(N)CCOCC4)cc3)cc21 [Example 21, (S)-4-Amino-N-(1-cyano-2-(4-(1-methyl-2-oxoindolin-6-yl)phenyl)ethyl)tetrahydro-2H-pyran-4-carboxamide]",0.251 nM
20,"N#Cc1cc(-c2ccc(C[C@@H](C#N)NC(=O)C3(N)CCOCC3)cc2)ccc1F [Example 22, (S)-4-Amino-N-(1-cyano-2-(3′-cyano-4′-fluorobiphenyl-4-yl)ethyl)tetrahydro-2H-pyran-4-carboxamide]",< 0.398 nM
21,"CS(=O)(=O)c1cccc(-c2ccc(C[C@@H](C#N)NC(=O)C3(N)CCOCC3)cc2)c1 [Example 23, (S)-4-Amino-N-(1-cyano-2-(3′-(methylsulfonyl)biphenyl-4-yl)ethyl)tetrahydro-2H-pyran-4-carboxamide trifluoroacetic acid salt]",0.631 nM
22,"COCCn1c(=O)oc2ccc(-c3ccc(C[C@@H](C#N)NC(=O)C4(N)CCOCC4)cc3)cc21 [Example 24, (S)-4-Amino-N-(1-cyano-2-(4-(3-(2-methoxyethyl)-2-oxo-2,3-dihydrobenzo[d]oxazol-5-yl)phenyl)ethyl)tetrahydro-2H-pyran-4-carboxamide trifluoroacetic acid salt]",0.2 nM
23,"N#C[C@H](Cc1ccc(-c2ccc(C(N)=O)c(F)c2)cc1)NC(=O)C1(N)CCOCC1 [Example 25, (S)-4-Amino-N-(2-(4′-carbamoyl-3′-fluorobiphenyl-4-yl)-1-cyanoethyl)tetrahydro-2H-pyran-4-carboxamide]",1.26 nM
